Tests used:
Assay type in all cases: cell-based
[1] = test system: BV2 cells, a mouse microglia cell line; test: NO production in BV2 microglia stimulated with LPS + interferon-gamma; conditions: LPS 100 ng/ml + interferon-gamma 50 unit/ml, oligonucleotide after 2 hours, FIG. 4
[2] = test system: BV2 cells, a mouse microglia cell line; test: Pro-inflammatory cytokine gene expression in BV2 microglia (PCR); conditions: LPS 100 ng/ml + interferon-gamma 50 unit/ml, FIG. 5
Description: The expression amount of cytokines was confirmed by measuring the expression level of cytokine genes in the BV2 cells using conventional PCR analysis, and the specific method is as follows. Total ribonucleic acid (RNA) was extracted from the treated cells using a TRIZOL reagent (Invitrogen, Carlsbad, Calif., United States). Reverse transcription (RT) was carried out using Superscript II reverse transcriptase (Invitrogen) and oligo (dT) primers. PCR amplification was carried out in a C1000 Touch Thermal Cycler (Bio-Rad, Richmond, Calif., United States) at an annealing temperature of 55-60° C. in 25-32 cycles using specific primer sets. The PCR product having ethidium bromide was electrophoresed on a 1% agarose gel and irradiated with ultraviolet rays to observe bands.

mouse primary astrocytes [3] = test: NO production in mouse primary astrocytes stimulated with LPS + interferon-gamma; conditions: LPS 100 ng/ml + interferon-gamma 50 unit/ml, oligonucleotide after 2 hours, FIG. 6
Description: (§1) The prepared astrocytes were treated with LPS (100 ng/ml)+interferon-gamma (50 unit/ml) for inflammatory stimulation, and allowed to stand for 2 hours, and then treated with the oligonucleotide (15 bp Oligo25, SEQ ID NO: 11) to confirm the amount of NO produced and the expression amount of cytokines.

mouse primary astrocytes [4] = test: Cytokine gene expression in mouse primary astrocytes (PCR); conditions: LPS 100 ng/ml + interferon-gamma 50 unit/ml, FIG. 7
Description: as §1
The expression amount of cytokines was confirmed by measuring the expression level of the cytokine genes using the conventional PCR analysis described in Example 5 above, and the concentration of cytokine proteins in the cell culture using Western blotting.

[5] = test system: mouse primary chondrocytes; test: Osteoarthritis marker gene expression in IL-1β-treated mouse primary chondrocytes (real-time PCR); conditions: oligonucleotide 10 ng/mL 2 hours, then IL-1β 6 hours, FIG. 8

AGG GAG GGA GGG AGG (DNA AGGGAGGGAGGGAGG; listed as DNA, chemistry not given here) [15 bp Oligo25, 15 bp oligonucleotide with ratio of adenosine and guanosine 1:3]
NO production [1]: NO production was reduced in proportion to the treatment concentration
expression level of IL-1β gene [2]: significantly reduced
expression level of IL-6 gene [2]: significantly reduced
expression level of TNF-α gene [2]: significantly reduced
NO production (mouse primary astrocytes [3]): NO production was reduced in proportion to the treatment concentration
expression level of IL-1β gene (mouse primary astrocytes [4]): significantly reduced
expression level of IL-6 gene (mouse primary astrocytes [4]): significantly reduced
expression level of TNF-α gene (mouse primary astrocytes [4]): significantly reduced
expression level of anti-inflammatory cytokine IL-10 gene (mouse primary astrocytes [4]): significantly increased
expression level of ADAMTS5 gene [5]: increased
expression level of MMP3 gene [5]: reduced
expression level of MMP9 gene [5]: reduced
expression level of MMP12 gene [5]: reduced
expression level of MMP13 gene [5]: reduced

Reference: US20230165888A1, “OLIGONUCLEOTIDE HAVING ANTI-INFLAMMATORY ACTIVITY” (priority 2019, published 2023)
